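Grown in 96-well plates, cells were treated for 48 hours with each compound at five concentrations. Insufficient inhibition: endpoint recorded as highest concentration tested. GI50 marks 50% less growth.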 Active and inactive are the calls of the source. Rule as the data show it: active = GI50 up to about 1.1 µM and inactive = higher.
What was measured:
Test in all cases: NCI tumour cell line growth inhibition, 48 h
HL-60 = tested on: HL-60
SNB-78 = tested on: SNB-78
786-0 = tested on: 786-0
SK-MEL-5 = tested on: SK-MEL-5
SF-268 = tested on: SF-268
SNB-19 = tested on: SNB-19
OVCAR-8 = tested on: OVCAR-8
K562 = tested on: K562
IGROV-1 = tested on: IGROV-1
CCRF-CEM = tested on: CCRF-CEM
KM12 = tested on: KM12
COLO 205 = tested on: COLO 205
RPMI-8226 = tested on: RPMI-8226
NCI-H226 = tested on: NCI-H226
NCI-H23 = tested on: NCI-H23
MDA-MB-435 = tested on: MDA-MB-435
T47D = tested on: T47D
BT-549 = tested on: BT-549
DU-145 = tested on: DU-145
MDA-N = tested on: MDA-N

Compound | GI50 (HL-60) | GI50 (SNB-78) | GI50 (786-0) | GI50 (SK-MEL-5) | GI50 (SF-268) | GI50 (SNB-19) | GI50 (OVCAR-8) | GI50 (K562) | GI50 (IGROV-1) | GI50 (CCRF-CEM) | GI50 (KM12) | GI50 (COLO 205) | GI50 (RPMI-8226) | GI50 (NCI-H226) | GI50 (NCI-H23) | GI50 (MDA-MB-435) | GI50 (T47D) | GI50 (BT-549) | GI50 (DU-145) | GI50 (MDA-N)
S=C1CNC(=S)CN1 | > 100 µM (inactive) | > 100 µM (inactive) | > 100 µM (inactive) | > 100 µM (inactive) | > 100 µM (inactive) | > 100 µM (inactive) | > 100 µM (inactive) | > 100 µM (inactive) | > 100 µM (inactive) | > 100 µM (inactive) | > 100 µM (inactive) | > 100 µM (inactive) | > 100 µM (inactive) | > 100 µM (inactive) |  |  |  |  |  | 
CC(=O)O[C@H]1C(=O)[C@@]2(C)C(C(OC(=O)c3ccccc3)[C@]3(O)CC(OC(=O)C(O)C(NC(=O)c4ccccc4)c4ccc(C)cc4)C(C)=C1C3(C)C)[C@]1(OC(C)=O)CO[C@@H]1C[C@@H]2O (some centres not stated) | 0.0069 µM (active) | 0.507 µM (active) | 0.073 µM (active) |  | 3.64 µM (inactive) | 0.0243 µM (active) | 0.00979 µM (active) | 0.0308 µM (active) | 0.0215 µM (active) | 0.0147 µM (active) | 0.0137 µM (active) | 0.0153 µM (active) | 0.0117 µM (active) |  | 0.0251 µM (active) |  |  |  |  | 
Nc1nc(=O)n([C@@H]2CC[C@H](CO)O2)cc1F | > 100 µM (inactive) | > 100 µM (inactive) | > 100 µM (inactive) | > 100 µM (inactive) | > 100 µM (inactive) | > 100 µM (inactive) | > 100 µM (inactive) | > 100 µM (inactive) |  | > 100 µM (inactive) | > 100 µM (inactive) | > 100 µM (inactive) | > 100 µM (inactive) | > 100 µM (inactive) | > 100 µM (inactive) |  |  |  |  | 
CC(=O)Oc1ccc2c(c1)C(=O)c1nc(C)c(C)nc1C2=O | 24.6 µM (inactive) | 48.2 µM (inactive) | 37.2 µM (inactive) | 16.2 µM (inactive) | 94.2 µM (inactive) | > 52.4 µM (inactive) | 45.1 µM (inactive) | 47 µM (inactive) | 46.8 µM (inactive) | 35.4 µM (inactive) | 59.3 µM (inactive) | 50 µM (inactive) | 39.8 µM (inactive) | 38.7 µM (inactive) | 43.4 µM (inactive) |  |  |  |  | 
Brc1ccc(-c2cc3c(cc2C2SCCS2)OCO3)cc1 | 15.4 µM (inactive) | 11.4 µM (inactive) | 26.9 µM (inactive) | 23.3 µM (inactive) | 26.9 µM (inactive) | 55.5 µM (inactive) | 50.1 µM (inactive) | 15.2 µM (inactive) | 37.2 µM (inactive) | 19.3 µM (inactive) | 39.4 µM (inactive) | 27.3 µM (inactive) |  | 8.17 µM (inactive) | 39.2 µM (inactive) |  |  |  |  | 
Nc1ncn(C2C=C(CO)C(O)C2O)c(=O)n1 (configuration not stated) | 31.6 µM (inactive) | > 100 µM (inactive) | 63.1 µM (inactive) | > 100 µM (inactive) | 53 µM (inactive) | > 100 µM (inactive) | 45.5 µM (inactive) | 41.6 µM (inactive) | 84.5 µM (inactive) |  | > 100 µM (inactive) | 29.3 µM (inactive) | 37 µM (inactive) | > 100 µM (inactive) |  |  |  |  |  | 
CNC(=O)C1CCc2nnc(-c3ccccc3)n21 (configuration not stated) | > 100 µM (inactive) | > 100 µM (inactive) | > 100 µM (inactive) | > 100 µM (inactive) | > 100 µM (inactive) | > 100 µM (inactive) |  | > 100 µM (inactive) | > 100 µM (inactive) | > 100 µM (inactive) | > 100 µM (inactive) | > 100 µM (inactive) | > 100 µM (inactive) | > 100 µM (inactive) |  |  |  |  |  | 
CC(C)(C)C1=CC(CCC(=O)Nc2ccccc2[N+](=O)[O-])=NC(S)N1 (configuration not stated) | > 100 µM (inactive) | > 100 µM (inactive) | > 100 µM (inactive) | > 100 µM (inactive) | > 100 µM (inactive) | > 100 µM (inactive) | > 100 µM (inactive) | > 100 µM (inactive) | > 100 µM (inactive) | > 100 µM (inactive) | > 100 µM (inactive) | > 100 µM (inactive) |  | > 100 µM (inactive) | > 100 µM (inactive) |  |  |  |  | 
COc1cc(C2C(Cl)C(=O)N2NC(=O)c2ccc(N)cc2)ccc1O (configuration not stated) | 27.9 µM (inactive) | 44.2 µM (inactive) | 19.1 µM (inactive) | 84.5 µM (inactive) |  | 25.3 µM (inactive) | 21.5 µM (inactive) | 31.3 µM (inactive) | 56.8 µM (inactive) | 18.5 µM (inactive) | 25.1 µM (inactive) | 20.8 µM (inactive) | 78 µM (inactive) | 95.7 µM (inactive) | 20.9 µM (inactive) |  |  |  |  | 
NC(=O)N=C(N(Cc1ccccc1)Cc1ccccc1)N(Cc1ccccc1)Cc1ccccc1 |  | 25.1 µM (inactive) | 14.9 µM (inactive) | > 20.3 µM (inactive) | 37.2 µM (inactive) | > 43.9 µM (inactive) | 14.4 µM (inactive) | > 100 µM (inactive) | 8.97 µM (inactive) | > 100 µM (inactive) | > 100 µM (inactive) |  | 8.02 µM (inactive) | > 100 µM (inactive) | 9.42 µM (inactive) | 3.72 µM (inactive) | > 100 µM (inactive) | > 100 µM (inactive) | > 100 µM (inactive) | 
CN(Cc1cnc2nc(N)nc(N)c2n1)c1ccc(C(=O)N[C@@H](CCC(=O)O)C(=O)O)cc1 [METHOTREXATE] | 0.043 µM (active) | 117 µM (inactive) | 0.034 µM (active) | 0.09 µM (active) | 0.0409 µM (active) | 0.59 µM (active) | 0.0292 µM (active) | 0.0285 µM (active) | 0.0908 µM (active) | 0.0296 µM (active) | 0.0493 µM (active) | 1.19 µM (inactive) | 0.0661 µM (active) | 20 µM (inactive) | 0.0408 µM (active) | 0.0341 µM (active) | 28 µM (inactive) | 69.5 µM (inactive) | 0.0476 µM (active) | 
COc1cc(NS(C)(=O)=O)ccc1Nc1c2ccccc2nc2ccccc12 [AMSACRINE] | 0.0519 µM (active) | 3.97 µM (inactive) | 0.15 µM (active) | 0.319 µM (active) | 0.415 µM (active) | 0.296 µM (active) | 0.571 µM (active) | 0.902 µM (active) | 2.4 µM (inactive) | 0.0561 µM (active) | 1.44 µM (inactive) | 2.86 µM (inactive) | 0.352 µM (active) | 0.125 µM (active) | 0.152 µM (active) | 4.54 µM (inactive) | 0.441 µM (active) | 1.04 µM (active) |  | 3.32 µM (inactive)
O=C(O)c1cc(Cl)cc(NC(=O)C(Cl)Cl)c1Cl | > 100 µM (inactive) | > 100 µM (inactive) | > 100 µM (inactive) | > 100 µM (inactive) | > 100 µM (inactive) | > 100 µM (inactive) | > 100 µM (inactive) | > 100 µM (inactive) | > 100 µM (inactive) | > 100 µM (inactive) | > 100 µM (inactive) | > 100 µM (inactive) | > 100 µM (inactive) | > 100 µM (inactive) | > 100 µM (inactive) |  |  |  |  | 
Cc1ccc(N2C(=O)/C(=C/c3ccc(N(CCC#N)CCC#N)cc3C)N=C2c2cc([N+](=O)[O-])ccc2Cl)cc1 | > 100 µM (inactive) | > 100 µM (inactive) | > 100 µM (inactive) | > 100 µM (inactive) | > 100 µM (inactive) | > 100 µM (inactive) | > 100 µM (inactive) | > 100 µM (inactive) | > 100 µM (inactive) | > 100 µM (inactive) | > 100 µM (inactive) | > 100 µM (inactive) | > 100 µM (inactive) | > 100 µM (inactive) | > 100 µM (inactive) |  |  |  |  | 
O=[N+]([O-])c1ccc(Cl)c(C2SCc3nc4ccccc4n32)c1 (configuration not stated) | 23.2 µM (inactive) | 34.6 µM (inactive) | 72.3 µM (inactive) | 16.5 µM (inactive) | 29.8 µM (inactive) | 41.5 µM (inactive) | 43.3 µM (inactive) | 27.7 µM (inactive) | 46.2 µM (inactive) | 28 µM (inactive) | 29 µM (inactive) | 37.6 µM (inactive) | 31.2 µM (inactive) | 24.1 µM (inactive) | 33.2 µM (inactive) |  |  |  |  | 
COc1ccc(/C=C2\CCc3ccccc3C2=O)cc1OC |  | 33.7 µM (inactive) | 34.5 µM (inactive) | 15.9 µM (inactive) | 20.8 µM (inactive) | 46 µM (inactive) | 32.1 µM (inactive) | 23.2 µM (inactive) | 27.4 µM (inactive) | 24.8 µM (inactive) | 19.6 µM (inactive) | 19.5 µM (inactive) | 13.9 µM (inactive) |  | 19.6 µM (inactive) |  |  |  |  | 
